In brackets after ≈: the same amount, converted by molar mass. Read-outs that look alike come from different tables or passages of the source.
How the values were obtained:
[1] = tested on: Bacillus cereus (ATCC 10987); assay: Agar diffusion antibacterial screening (inhibition zone); assay type: cell-based; conditions: ATCC10987, B. cereus, 1 mg/mL, Mueller–Hinton agar, read-out: Diameter of inhibition zone
Experimental: (§1) The antibacterial activity of β-enamionitriles (4a-q) was screened using Mueller–Hinton agar medium for bacteria in an agar diffusion methodology. Ciprofloxacin (1 mg/mL) was the reference antibiotic drug used in the analysis of collections that included four gram-positive species of multi drug resistant pathogenic bacteria: Staphylococcus aureus (MRSA) (ATCC 6539), Staphylococcus aureus (ATCC 6538), Bacillus cereus (ATCC 10987), Bacillus subtilis (ATCC 6633), and two gram-negative species of multi drug resistant pathogenic bacteria Klebsiella pneumonia (ATCC 13883) and Escherichia coli (ATCC 8739). […] Using a 1 mg/mL concentration of compounds (4a-q), the minimum zone of inhibition (IZ, the area around the antimicrobial agent where bacterial growth is prevented) was established in mm ± standard deviation beyond the well diameter (6 mm). […] The synthetic compound's inhibitory effects on evaluation against these organisms are depicted in Fig. 9 and Table 1.
(§2) Compound 4a-q was screened for its in vitro antimicrobial activities against pathogenic bacteria species using the standard antibiotics Ampicillin, Gentamycin and Ketoconazole as reference drugs as reported previously. The minimum inhibitory concentration (MIC) was determined as previously reported. The antimicrobial activities were performed at the Regional Centre for Mycology & Biotechnology (RCMP), Al-Azhar University.

[2] = tested on: Bacillus subtilis (ATCC 6633); assay: as above; assay type: cell-based; conditions: ATCC6633, B. subtilis, 1 mg/mL, Mueller–Hinton agar, read-out: Diameter of inhibition zone
Experimental: as §1, §2

[3] = tested on: Escherichia coli (ATCC 8739); assay: as above; assay type: cell-based; conditions: ATCC8739, E. coli, 1 mg/mL, Mueller–Hinton agar, read-out: Diameter of inhibition zone
Experimental: as §1, §2

[4] = tested on: Klebsiella pneumonia (ATCC 13883); assay: as above; assay type: cell-based; conditions: Klebsiella pneumoniae, ATCC13883, K. pneumonia, 1 mg/mL, Mueller–Hinton agar, read-out: Diameter of inhibition zone
Experimental: as §1, §2

[5] = tested on: Staphylococcus aureus (ATCC 6538); assay: as above; assay type: cell-based; conditions: ATCC6538, S. aureus, 1 mg/mL, Mueller–Hinton agar, read-out: Diameter of inhibition zone
Experimental: as §1, §2

[6] = tested on: Staphylococcus aureus (MRSA) (ATCC 6539); assay: as above; assay type: cell-based; conditions: read-out: Diameter of inhibition zone
Experimental: as §1, §2

[7] = tested on: HFL-1 (human foetal lung); assay: MTT cytotoxicity assay, normal cells; assay type: cell-based; conditions: HFL1, HFL-1 normal cells, MTT, 24-h incubation, mean ± standard error, read-out: IC50 Normotoxicity HFL-1
Source text: (§4) The antiproliferative activity of the newly synthesized 1H-benzo[f]chromenes derivatives (4a-q) was examined in three human cancer cell lines: MCF-7 (breast cancer), HCT-116 (human colon cancer), and HepG-2 (hepatocellular carcinoma), as well as the two normal cell lines, HFL-1 (human foetal lung) and WI-38 (human diploid fibroblasts), using the 3-(4,5-dimethylthiazol-2-yl)-2,5-diphenyl tetrazolium bromide (MTT) colorimetric assay[56].
(§5) Compounds 4a-q was initially evaluated for in vitro antitumor activity against three different human cell lines: MCF-7, HCT-116 and HepG-2. In-vitro cytotoxicity evaluation was performed at the Regional Center for Mycology & Biotechnology (RCMP), Al-Azhar University under different concentrations (50, 25, 12.5, 6.25, 3.125, 1.56 and 0 µg/mL); vinblastine and doxorubicin are used as reference cytotoxic compounds.

[8] = tested on: WI-38 (human diploid fibroblasts); assay: MTT cytotoxicity assay, normal cells; assay type: cell-based; conditions: WI-38 normal cells, MTT, 24-h incubation, mean ± standard error, read-out: IC50 Normotoxicity WI-38
Source text: as §4, §5

[9] = tested on: MCF-7 (breast cancer); conditions: values marked b, read-out: IC50 Cancerotoxicity MCF-7; cited from earlier work
[10] = tested on: HCT-116 (human colon cancer); conditions: values marked b, read-out: IC50 Cancerotoxicity HCT-116; cited from earlier work
[11] = tested on: HepG-2 (hepatocellular carcinoma); conditions: values marked b, read-out: IC50 Cancerotoxicity HepG-2; cited from earlier work
[12] = tested on: Bacillus cereus; assay: MIC, Mueller Hinton broth resazurin assay; assay type: cell-based; conditions: 24 h, MH broth resazurin
Source text: (§3) The minimum inhibitory concentration, or MIC, is the lowest concentration needed to stop bacterial growth. When evaluating how well antimicrobial agents work against various bacterial strains, MIC values are crucial. […] The right dosage of the antimicrobial agent to be used in the treatment of bacterial infections can also be determined with the aid of the MIC value. Table 2 and Fig. 10 show the minimum inhibitory concentration (MIC) of the active compound 4 g against various bacterial strains.
as §2

[13] = tested on: Bacillus subtilis; assay: MIC, Mueller Hinton broth resazurin assay; assay type: cell-based; conditions: 24 h, MH broth resazurin
Source text: as §3, §2

[14] = tested on: Escherichia coli; assay: MIC, Mueller Hinton broth resazurin assay; assay type: cell-based; conditions: 24 h, MH broth resazurin
Source text: as §3, §2

[15] = tested on: Klebsiella pneumonia; assay: MIC, Mueller Hinton broth resazurin assay; assay type: cell-based; conditions: Klebsiella pneumoniae, 24 h, MH broth resazurin
Source text: as §3, §2

[16] = tested on: Staphylococcus aureus (MRSA); assay: MIC, Mueller Hinton broth resazurin assay; assay type: cell-based; conditions: 24 h, MH broth resazurin
Source text: as §3, §2

[17] = tested on: Staphylococcus aureus; assay: MIC, Mueller Hinton broth resazurin assay; assay type: cell-based; conditions: 24 h, MH broth resazurin
Source text: as §3, §2

[18] = tested on: HCT-116 (human colon cancer); assay: MTT cytotoxicity assay; assay type: cell-based
Source text: as §4, §5

[19] = tested on: HepG-2 (hepatocellular carcinoma); assay: MTT cytotoxicity assay; assay type: cell-based; conditions: Homo sapiens
Source text: as §4, §5

[20] = tested on: MCF-7 (breast cancer); assay: MTT cytotoxicity assay; conditions: Homo sapiens
Source text: as §4, §5

[21] = MTT, 24-h incubation, mean ± standard error, read-out: IC50 Cancerotoxicity HCT-116
[22] = HepG2, MTT, 24-h incubation, mean ± standard error, read-out: IC50 Cancerotoxicity HepG-2
[23] = MCF7, 24 h, read-out: IC50 Cancerotoxicity MCF-7
[24] = given in µg/mL, read-out: IC50 HCT-116
[25] = HepG2, given in µg/mL, read-out: IC50 HepG-2

SMILES | zone of inhibition at 1000 µg/mL [1] | zone of inhibition at 1000 µg/mL [2] | zone of inhibition at 1000 µg/mL [3] | zone of inhibition at 1000 µg/mL [4] | zone of inhibition at 1000 µg/mL [5] | zone of inhibition at 1000 µg/mL [6] | IC50 [7] | IC50 [8] | melting point | IC50 [9] | IC50 [10] | IC50 [11] | IC50 [18, 21] | IC50 [19, 22] | IC50 [20, 23] | other results
COc1ccc2c3c(ccc2c1)OC(N)=C(C#N)C3c1ccc(Br)cc1 (stereo not shown) [Compound 4e, 3-Amino-1-(4-bromophenyl)-8-methoxy-1H-benzo[f]chromene-2-carbonitrile] | 14 mm | 0 mm | 0 mm | 10 mm | 0 mm | 12 mm | 189.9 ± 1.1 µM | 165.3 ± 1.2 µM | 261 to 262 °C | 4.9 ± 0.25 µM | 2.2 ± 0.58 µM | 1.7 ± 0.13 µM |  |  |  | 
COc1ccc2c3c(ccc2c1)OC(N)=C(C#N)C3c1ccc(F)cc1F (stereo not shown) [Compound 4g, 3-Amino-1-(2,4-difluorophenyl)-8-methoxy-1H-benzo[f]chromene-2-carbonitrile] | 20 mm | 21 mm | 14 mm | 16 mm | 23 mm | 17 mm | 179.4 ± 0.1 µM | 190.1 ± 0.3 µM | 300 to 301 °C |  |  |  | 6 ± 0.11 µM | 1.9 ± 0.5 µM | 2.7 ± 0.23 µM | MIC [12]: 1000 µg/mL (≈ 2740 µM); MIC [13]: 1000 µg/mL (≈ 2740 µM); MIC [14]: 250 µg/mL (≈ 686 µM); MIC [15]: 500 µg/mL (≈ 1370 µM); MIC [16]: 500 µg/mL (≈ 1370 µM); MIC [17]: 1000 µg/mL (≈ 2740 µM)
COc1ccc2c3c(ccc2c1)OC(N)=C(C#N)C3c1ccccc1Cl (stereo not shown) [Compound 4b, 3-Amino-1-(2-chlorophenyl)-8-methoxy-1H-benzo[f]chromene-2-carbonitrile] | 14 mm | 0 mm | 12 mm | 13 mm | 0 mm | 13 mm | 198.6 ± 0.1 µM | 171 ± 0.2 µM | 265 to 266 °C |  |  |  | 8.6 ± 0.25 µM | 6.1 ± 0.2 µM | 3.9 ± 0.18 µM | 
COc1ccc2c3c(ccc2c1)OC(N)=C(C#N)C3c1cccc(Cl)c1Cl (stereo not shown) [Compound 4i, 3-Amino-1-(2,3-dichlorophenyl)-8-methoxy-1H-benzo[f]chromene-2-carbonitrile] | 8 mm | 0 mm | 0 mm | 14 mm | 0 mm | 13 mm | 154.5 ± 0.1 µM | 160.1 ± 0.2 µM | 256 to 257 °C |  |  |  | 3.5 ± 0.15 µM | 2.8 ± 0.17 µM | 2.3 ± 0.01 µM | IC50 [18, 24]: 1.4 ± 0.15 µg/mL; IC50 [19, 25]: 11.1 ± 0.17 µg/mL; IC50 ([20]; MCF7, read-out: IC50 MCF-7): 0.9 ± 0.01 µg/mL
COc1ccc2c3c(ccc2c1)OC(N)=C(C#N)C3c1ccc(F)cc1 (stereo not shown) [Compound 4a, 3-Amino-1-(4-fluorophenyl)-8-methoxy-1H-benzo[f]chromene-2-carbonitrile] | 13 mm | 0 mm | 11 mm | 14 mm | 0 mm | 14 mm |  |  | 255 to 256 °C | 12.7 ± 0.05 µM | 14.2 ± 0.01 µM | 1.5 ± 0.01 µM |  |  |  | 
COc1ccc2c3c(ccc2c1)OC(N)=C(C#N)C3c1cc(Br)cc(Br)c1OC (stereo not shown) [Compound 4n, 3-amino-1-(3,5-dibromo-2-methoxyphenyl)-8-methoxy-1H-benzo[f]chromene-2-carbonitrile] | 13 mm | 0 mm | 0 mm | 11 mm | 0 mm | 14 mm | 139.5 ± 0.1 µM | 135.4 ± 0.3 µM | 241 to 242 °C |  |  |  | 1.2 ± 0.06 µM | 5.6 ± 0.21 µM | 1.4 ± 0.05 µM | IC50 [18, 24]: 0.6 ± 0.06 µg/mL; IC50 [19, 25]: 2.9 ± 0.21 µg/mL; IC50 ([20]; MCF7, read-out: IC50 MCF-7): 0.7 ± 0.05 µg/mL
COc1ccc2c3c(ccc2c1)OC(N)=C(C#N)C3c1cccc(Cl)c1 (stereo not shown) [Compound 4c, 3-Amino-1-(3-chlorophenyl)-8-methoxy-1H-benzo[f]chromene-2-carbonitrile] | 17 mm | 0 mm | 12 mm | 13 mm | 0 mm | 15 mm | 187.6 ± 0.2 µM | 214.1 ± 0.1 µM | 216 to 217 °C |  |  |  | 5.5 ± 0.35 µM | 3.3 ± 0.5 µM | 3.6 ± 0.14 µM | 
COc1ccc2c3c(ccc2c1)OC(N)=C(C#N)C3c1ccc(Cl)cc1 (stereo not shown) [Compound 4d, 3-Amino-1-(4-chlorophenyl)-8-methoxy-1H-benzo[f]chromene-2-carbonitrile] | 15 mm | 0 mm | 0 mm | 12 mm | 0 mm | 12 mm | 164.4 ± 1.1 µM | 165.5 ± 1.3 µM | 246 to 247 °C | 8.6 ± 0.29 µM | 6.9 ± 0.97 µM | 0.8 ± 0.08 µM |  |  |  | 

— article PMC11058275, “Targeted potent antimicrobial and antitumor oxygen-heterocyclic-based pyran analogues: synthesis and computational studies” (Scientific Reports, 2024)
